# Measurements reported in PubChem BioAssay (NCI).
#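 Values below derive from 48-hour exposures of cells grown in 96-well plates, with endpoints linearly interpolated between the two concentrations bracketing the appropriate inhibition level. GI50: concentration for 50% inhibition of growth. The concentration for full growth arrest is given as TGI.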
# What was measured:
# Assay in all cases: NCI-60 cell line screen, 48 h
# NCI-H226 lung = test system: NCI-H226 lung
# NCI-H460 lung = test system: NCI-H460 lung
# NCI-H522 lung = test system: NCI-H522 lung
# NCI/ADR-RES ovarian = test system: NCI/ADR-RES ovarian
# OVCAR-3 ovarian = test system: OVCAR-3 ovarian
# OVCAR-4 ovarian = test system: OVCAR-4 ovarian
# OVCAR-5 ovarian = test system: OVCAR-5 ovarian
# OVCAR-8 ovarian = test system: OVCAR-8 ovarian
# PC-3 prostate = test system: PC-3 prostate
# RPMI-8226 leukemia = test system: RPMI-8226 leukemia
# RXF 393 renal = test system: RXF 393 renal
# SF-268 CNS = test system: SF-268 CNS
# SF-295 CNS = test system: SF-295 CNS
# SF-539 CNS = test system: SF-539 CNS
# SK-MEL-2 melanoma = test system: SK-MEL-2 melanoma
# SK-MEL-28 melanoma = test system: SK-MEL-28 melanoma
# SK-MEL-5 melanoma = test system: SK-MEL-5 melanoma
# SK-OV-3 ovarian = test system: SK-OV-3 ovarian
# SN12C renal = test system: SN12C renal
# SNB-19 CNS = test system: SNB-19 CNS
# SNB-75 CNS = test system: SNB-75 CNS
# SR leukemia = test system: SR leukemia
# SW-620 colon = test system: SW-620 colon
# T-47D breast = test system: T-47D breast
# TK-10 renal = test system: TK-10 renal
# U251 CNS = test system: U251 CNS
# UACC-257 melanoma = test system: UACC-257 melanoma
# UACC-62 melanoma = test system: UACC-62 melanoma
# UO-31 renal = test system: UO-31 renal
smiles,measurement,setting,value
C[C@@H](Nc1c(C#N)cnc2ccc(-c3cnc(N)nc3)cc12)c1ccccc1,TGI,NCI-H226 lung,12.7 µM
same,GI50,NCI-H460 lung,1.73 µM
same,TGI,NCI-H460 lung,44.6 µM
same,GI50,NCI-H522 lung,1.73 µM
same,TGI,NCI-H522 lung,10.6 µM
same,GI50,NCI/ADR-RES ovarian,2.87 µM
same,TGI,NCI/ADR-RES ovarian,18.1 µM
same,GI50,OVCAR-3 ovarian,2.74 µM
same,TGI,OVCAR-3 ovarian,> 100 µM
same,GI50,OVCAR-4 ovarian,1.22 µM
same,TGI,OVCAR-4 ovarian,7.87 µM
same,GI50,OVCAR-5 ovarian,1.62 µM
same,TGI,OVCAR-5 ovarian,83.8 µM
same,GI50,OVCAR-8 ovarian,2.5 µM
same,TGI,OVCAR-8 ovarian,24 µM
same,GI50,PC-3 prostate,1.54 µM
same,TGI,PC-3 prostate,10.1 µM
same,GI50,RPMI-8226 leukemia,0.588 µM
same,TGI,RPMI-8226 leukemia,4.92 µM
same,GI50,RXF 393 renal,0.886 µM
same,TGI,RXF 393 renal,4.59 µM
same,GI50,SF-268 CNS,3.22 µM
same,TGI,SF-268 CNS,> 100 µM
same,GI50,SF-295 CNS,1.38 µM
same,TGI,SF-295 CNS,7.45 µM
same,GI50,SF-539 CNS,2.21 µM
same,TGI,SF-539 CNS,12.8 µM
same,GI50,SK-MEL-2 melanoma,1.76 µM
same,TGI,SK-MEL-2 melanoma,5.54 µM
same,GI50,SK-MEL-28 melanoma,2.95 µM
same,TGI,SK-MEL-28 melanoma,26.9 µM
same,GI50,SK-MEL-5 melanoma,1.84 µM
same,TGI,SK-MEL-5 melanoma,3.99 µM
same,GI50,SK-OV-3 ovarian,2.16 µM
same,TGI,SK-OV-3 ovarian,7.38 µM
same,GI50,SN12C renal,1.14 µM
same,TGI,SN12C renal,24.2 µM
same,GI50,SNB-19 CNS,2.23 µM
same,TGI,SNB-19 CNS,60.6 µM
same,GI50,SNB-75 CNS,1.58 µM
same,TGI,SNB-75 CNS,37.5 µM
same,GI50,SR leukemia,2.38 µM
same,TGI,SR leukemia,> 100 µM
same,GI50,SW-620 colon,3.73 µM
same,TGI,SW-620 colon,> 100 µM
same,GI50,T-47D breast,0.907 µM
same,TGI,T-47D breast,7.86 µM
same,GI50,TK-10 renal,0.289 µM
same,TGI,TK-10 renal,3.45 µM
same,GI50,U251 CNS,2.13 µM
same,TGI,U251 CNS,77.5 µM
same,GI50,UACC-257 melanoma,2.79 µM
same,TGI,UACC-257 melanoma,17.1 µM
same,GI50,UACC-62 melanoma,2.24 µM
same,TGI,UACC-62 melanoma,10 µM
same,GI50,UO-31 renal,0.31 µM
same,TGI,UO-31 renal,8.9 µM
